In brackets after ≈: the same amount, converted by molar mass. Blank lines part the entries; values can stand above or below the compound they belong to. Activity calls are given as the source filed them. No cut-off for these calls is given here.
Columns and labels:
[1] = biological target: T1, Histone-lysine N-methyltransferase SUV39H1 (Homo sapiens) (UniProt O43463); test: Displacement of 3H-SAM from SUV39H1 (unknown origin) using biotinylated-histone H3 peptide as substrate at 10 uM incubated for 45 mins by SPA assay relative to control
T1 sequence (whole entry): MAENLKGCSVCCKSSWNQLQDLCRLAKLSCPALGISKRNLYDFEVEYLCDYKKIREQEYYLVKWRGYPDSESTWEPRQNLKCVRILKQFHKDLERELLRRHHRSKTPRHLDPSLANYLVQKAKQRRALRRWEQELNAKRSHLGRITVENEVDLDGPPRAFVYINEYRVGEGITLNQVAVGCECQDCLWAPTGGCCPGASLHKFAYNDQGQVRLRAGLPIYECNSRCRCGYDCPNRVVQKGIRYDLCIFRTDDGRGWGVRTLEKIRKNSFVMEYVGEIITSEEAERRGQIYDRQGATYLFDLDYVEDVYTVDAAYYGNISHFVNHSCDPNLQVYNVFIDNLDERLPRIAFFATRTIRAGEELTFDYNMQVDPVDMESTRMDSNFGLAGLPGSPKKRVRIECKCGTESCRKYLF

[2] = biological target: T2, Histone-lysine N-methyltransferase SMYD3 (Homo sapiens) (UniProt Q9H7B4); test: Displacement of 3H-SAM from SMYD3 (unknown origin) using biotinylated-MAP3K2 as substrate at 10 uM incubated for 45 mins by SPA assay relative to control
T2 sequence (whole entry): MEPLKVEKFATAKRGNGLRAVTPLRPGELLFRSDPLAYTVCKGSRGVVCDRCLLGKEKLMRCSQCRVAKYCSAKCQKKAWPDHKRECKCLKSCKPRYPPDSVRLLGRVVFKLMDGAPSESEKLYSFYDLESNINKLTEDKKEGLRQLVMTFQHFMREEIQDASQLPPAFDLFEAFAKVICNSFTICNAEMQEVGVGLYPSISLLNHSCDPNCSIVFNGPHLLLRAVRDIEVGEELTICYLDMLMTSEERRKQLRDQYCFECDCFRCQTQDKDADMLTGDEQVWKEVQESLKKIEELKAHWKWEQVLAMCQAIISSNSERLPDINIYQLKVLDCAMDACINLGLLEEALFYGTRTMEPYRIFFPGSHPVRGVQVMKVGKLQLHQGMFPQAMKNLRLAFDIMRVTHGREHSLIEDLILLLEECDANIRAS

[3] = biological target: T3, Histone-lysine N-methyltransferase SUV39H1 (Homo sapiens, UniProt O43463); test: Displacement of 3H-SAM from SUV39H1 (unknown origin) using biotinylated-histone H3 peptide as substrate incubated for 45 mins by SPA assay
T3 sequence (O43463 whole entry): T1 sequence (whole entry)

[4] = biological target: T4, Protein arginine N-methyltransferase 1 (Homo sapiens, UniProt Q99873); test: Displacement of 3H-SAM from PRMT1 (unknown origin) using biotinylated-histone H4 peptide as substrate at 30 uM incubated for 45 mins by SPA assay relative to control
Target sequence in this assay (Q99873 whole entry, looked up): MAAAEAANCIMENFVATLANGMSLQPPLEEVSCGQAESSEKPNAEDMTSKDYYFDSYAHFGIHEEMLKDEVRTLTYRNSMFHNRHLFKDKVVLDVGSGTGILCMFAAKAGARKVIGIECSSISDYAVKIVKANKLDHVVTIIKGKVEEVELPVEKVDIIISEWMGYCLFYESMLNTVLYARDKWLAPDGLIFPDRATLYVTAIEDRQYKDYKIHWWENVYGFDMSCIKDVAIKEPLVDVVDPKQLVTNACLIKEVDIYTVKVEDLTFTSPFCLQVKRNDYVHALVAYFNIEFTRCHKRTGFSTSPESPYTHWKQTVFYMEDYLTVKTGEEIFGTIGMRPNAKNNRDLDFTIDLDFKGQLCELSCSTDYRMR

[5] = biological target: T2, Histone-lysine N-methyltransferase SMYD3 (Homo sapiens); test: Displacement of 3H-SAM from SMYD3 (unknown origin) using biotinylated-MAP3K2 as substrate at 30 uM incubated for 45 mins by SPA assay relative to control
[6] = biological target: Histone-lysine N-methyltransferase, H3 lysine-79 specific (Homo sapiens) (UniProt Q8TEK3); test: Displacement of 3H-SAM from DOT1L (unknown origin) at 30 uM incubated for 1 hr in presence of substrate by SPA assay relative to control
Histone-lysine N-methyltransferase, H3 lysine-79 specific (Homo sapiens), sequence (Q8TEK3 whole entry, looked up): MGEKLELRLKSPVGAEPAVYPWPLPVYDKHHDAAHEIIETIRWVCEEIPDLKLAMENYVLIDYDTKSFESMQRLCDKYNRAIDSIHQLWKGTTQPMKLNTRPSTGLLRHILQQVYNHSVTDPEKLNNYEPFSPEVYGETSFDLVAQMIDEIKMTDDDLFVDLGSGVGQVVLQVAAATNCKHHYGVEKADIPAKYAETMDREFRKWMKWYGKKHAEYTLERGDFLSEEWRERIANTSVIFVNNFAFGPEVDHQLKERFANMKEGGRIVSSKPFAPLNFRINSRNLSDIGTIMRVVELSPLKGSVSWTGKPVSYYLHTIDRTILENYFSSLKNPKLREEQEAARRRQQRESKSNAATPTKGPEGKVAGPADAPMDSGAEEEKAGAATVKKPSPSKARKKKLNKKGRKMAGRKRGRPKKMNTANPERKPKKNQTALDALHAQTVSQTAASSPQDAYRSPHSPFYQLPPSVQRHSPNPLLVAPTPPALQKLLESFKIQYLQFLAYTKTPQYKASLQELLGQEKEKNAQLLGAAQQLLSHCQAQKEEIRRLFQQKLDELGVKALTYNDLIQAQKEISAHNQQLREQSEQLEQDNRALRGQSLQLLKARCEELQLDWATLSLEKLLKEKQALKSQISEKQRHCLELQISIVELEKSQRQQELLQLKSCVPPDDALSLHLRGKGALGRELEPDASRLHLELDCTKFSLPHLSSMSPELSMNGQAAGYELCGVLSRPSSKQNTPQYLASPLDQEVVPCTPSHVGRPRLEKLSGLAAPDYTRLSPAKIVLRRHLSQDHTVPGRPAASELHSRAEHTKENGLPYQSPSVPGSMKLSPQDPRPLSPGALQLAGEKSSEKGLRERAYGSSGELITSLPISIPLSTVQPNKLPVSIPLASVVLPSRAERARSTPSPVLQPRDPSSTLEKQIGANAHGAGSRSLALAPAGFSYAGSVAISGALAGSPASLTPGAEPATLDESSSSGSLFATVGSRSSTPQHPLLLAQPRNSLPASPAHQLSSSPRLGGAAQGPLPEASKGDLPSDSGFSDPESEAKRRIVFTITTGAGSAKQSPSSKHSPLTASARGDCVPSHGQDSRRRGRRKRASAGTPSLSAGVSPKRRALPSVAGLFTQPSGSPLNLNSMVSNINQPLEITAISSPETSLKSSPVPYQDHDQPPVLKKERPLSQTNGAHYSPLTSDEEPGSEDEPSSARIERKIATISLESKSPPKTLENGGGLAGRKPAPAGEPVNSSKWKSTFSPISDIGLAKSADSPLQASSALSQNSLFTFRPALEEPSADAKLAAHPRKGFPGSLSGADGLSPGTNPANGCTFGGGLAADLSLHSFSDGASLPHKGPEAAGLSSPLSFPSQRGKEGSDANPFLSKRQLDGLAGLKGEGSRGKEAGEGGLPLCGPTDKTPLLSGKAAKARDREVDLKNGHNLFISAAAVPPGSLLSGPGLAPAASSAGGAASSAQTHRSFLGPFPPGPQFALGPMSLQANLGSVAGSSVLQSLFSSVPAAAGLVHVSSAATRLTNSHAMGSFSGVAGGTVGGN

[7] = biological target: T4, Protein arginine N-methyltransferase 1; test: Displacement of 3H-SAM from PRMT1 (unknown origin) using biotinylated-histone H4 peptide as substrate upto 200 uM incubated for 45 mins by SPA assay
Target sequence in this assay (Q99873 whole entry, looked up): as the sequence (Q99873 whole entry, looked up) above

[8] = biological target: T4, Protein arginine N-methyltransferase 1; test: Displacement of 3H-SAM from PRMT1 (unknown origin) using biotinylated-histone H4 peptide as substrate incubated for 45 mins by SPA assay
Target sequence in this assay (Q99873 whole entry): as the sequence (Q99873 whole entry, looked up) above

[9] = biological target: T5, Histone-lysine N-methyltransferase SMYD3 (Homo sapiens, UniProt Q9H7B4); test: Displacement of 3H-SAM from SMYD3 (unknown origin) using biotinylated-MAP3K2 as substrate incubated for 45 mins by SPA assay
T5 sequence (Q9H7B4 whole entry): T2 sequence (whole entry)

[10] = Lipophilicity, log D of compound in 1-octanol at pH 7.4 incubated for 4 hrs by HPLC-UV analysis; assay type: physicochemical; conditions: 1-octanol/aqueous phase
[11] = biological target: T1, Histone-lysine N-methyltransferase SUV39H1 (Homo sapiens); test: Displacement of 3H-SAM from SUV39H1 (unknown origin) using biotinylated-histone H3 peptide as substrate upto 200 uM incubated for 45 mins by SPA assay
[12] = biological target: T2, Histone-lysine N-methyltransferase SMYD3 (Homo sapiens); test: Displacement of 3H-SAM from SMYD3 (unknown origin) using biotinylated-MAP3K2 as substrate upto 200 uM incubated for 45 mins by SPA assay
[13] = biological target: T6, Histone-arginine methyltransferase CARM1 (Homo sapiens, UniProt Q86X55); test: Inhibition of PRMT4 (unknown origin)
T6 sequence (Q86X55 whole entry): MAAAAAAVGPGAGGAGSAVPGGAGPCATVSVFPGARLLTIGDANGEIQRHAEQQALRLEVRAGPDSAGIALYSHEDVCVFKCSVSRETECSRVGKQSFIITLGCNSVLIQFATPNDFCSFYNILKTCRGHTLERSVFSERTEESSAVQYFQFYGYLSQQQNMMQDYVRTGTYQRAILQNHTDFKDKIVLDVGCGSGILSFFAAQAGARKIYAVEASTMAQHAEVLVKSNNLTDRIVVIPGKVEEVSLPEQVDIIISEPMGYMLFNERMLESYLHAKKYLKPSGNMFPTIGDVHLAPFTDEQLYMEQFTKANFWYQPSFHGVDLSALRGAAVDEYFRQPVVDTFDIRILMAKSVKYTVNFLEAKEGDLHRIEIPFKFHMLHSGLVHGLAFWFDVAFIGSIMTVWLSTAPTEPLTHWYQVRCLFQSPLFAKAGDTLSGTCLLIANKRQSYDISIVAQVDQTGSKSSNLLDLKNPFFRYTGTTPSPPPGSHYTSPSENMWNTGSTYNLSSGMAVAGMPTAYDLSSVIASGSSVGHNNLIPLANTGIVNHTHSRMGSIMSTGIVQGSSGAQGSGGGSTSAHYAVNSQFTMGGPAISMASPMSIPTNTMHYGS

[14] = Aqueous solubility of compound at pH 7.4 incubated for 24 hrs by HPLC-UV spectroscopy; assay type: physicochemical; conditions: aqueous medium
[15] = biological target: Protein arginine N-methyltransferase 6 (Homo sapiens, UniProt Q96LA8); test: Inhibition of PRMT6 (unknown origin)
Protein arginine N-methyltransferase 6, sequence (Q96LA8 whole entry): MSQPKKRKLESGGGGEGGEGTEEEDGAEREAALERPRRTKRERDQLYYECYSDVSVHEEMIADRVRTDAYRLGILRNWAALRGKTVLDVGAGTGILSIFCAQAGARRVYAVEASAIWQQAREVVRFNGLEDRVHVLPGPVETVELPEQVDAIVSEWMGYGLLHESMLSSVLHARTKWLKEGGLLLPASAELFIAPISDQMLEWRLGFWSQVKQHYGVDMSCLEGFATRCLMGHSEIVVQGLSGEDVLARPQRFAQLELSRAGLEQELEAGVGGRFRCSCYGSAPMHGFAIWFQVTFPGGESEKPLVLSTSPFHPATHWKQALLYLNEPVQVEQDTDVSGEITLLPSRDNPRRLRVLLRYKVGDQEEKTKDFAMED

[16] = biological target: T7, Protein arginine N-methyltransferase 8 (Homo sapiens, UniProt Q9NR22); test: Inhibition of PRMT8 (unknown origin)
T7 sequence (Q9NR22 whole entry): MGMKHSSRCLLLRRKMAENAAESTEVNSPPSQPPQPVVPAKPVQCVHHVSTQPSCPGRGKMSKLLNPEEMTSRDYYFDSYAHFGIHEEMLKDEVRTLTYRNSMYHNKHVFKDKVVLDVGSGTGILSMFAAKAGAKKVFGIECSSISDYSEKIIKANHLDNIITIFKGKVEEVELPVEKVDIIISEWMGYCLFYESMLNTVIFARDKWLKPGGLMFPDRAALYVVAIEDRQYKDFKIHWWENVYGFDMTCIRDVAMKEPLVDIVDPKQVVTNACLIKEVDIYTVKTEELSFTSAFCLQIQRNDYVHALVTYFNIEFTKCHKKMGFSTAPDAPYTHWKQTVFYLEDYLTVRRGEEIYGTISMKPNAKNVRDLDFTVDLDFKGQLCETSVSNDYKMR

[17] = biological target: T4, Protein arginine N-methyltransferase 1; test: Inhibition of PRMT1 (unknown origin)
Target sequence in this assay (Q99873 whole entry): as the sequence (Q99873 whole entry, looked up) above

[18] = biological target: T1, Histone-lysine N-methyltransferase SUV39H1 (Homo sapiens); test: Displacement of 3H-SAM from SUV39H1 (unknown origin) using biotinylated-histone H3 peptide as substrate at 30 uM incubated for 45 mins by SPA assay relative to control
[19] = biological target: T6, Histone-arginine methyltransferase CARM1; test: Displacement of 3H-SAM from human PRMT4 in presence of substrate by SPA assay
[20] = biological target: T7, Protein arginine N-methyltransferase 8; test: Displacement of 3H-SAM from human PRMT8 in presence of substrate by SPA assay

inhibition [7]: inactive | inhibition [1]: < 25% | inhibition [2]: < 25%
Structure (SMILES): CN1CCC(NC(=O)c2ccc3c(Nc4ccc(CN)cc4)ncnc3c2)C1 (configuration not stated)

IC50 [8]: > 200 µM | IC50 [3]: > 200 µM | IC50 [9]: > 100 µM
Structure (SMILES): NCc1ccc(Nc2ncnc3cc(C(=O)NC4CCNCC4)ccc23)cc1

IC50 [3]: 16 µM | IC50 [9]: 60 µM
Structure (SMILES): NC1CCN(c2ncnc3cc(C(=O)NC4CCNC4)ccc23)CC1 (configuration not stated)

IC50 [8]: > 100 µM | IC50 [3]: > 200 µM | IC50 [9]: > 200 µM
Structure (SMILES): NC1CCN(c2ncnc3cc(C(=O)NCCN4CCNCC4)ccc23)CC1

IC50 [8]: > 200 µM | IC50 [3]: > 200 µM | IC50 [9]: > 200 µM
Structure (SMILES): NC1CCN(c2ncnc3cc(C(=O)NC4CCNCC4)ccc23)CC1

inhibition [7]: inactive | inhibition [11]: inactive | inhibition [12]: inactive
Structure (SMILES): NC1CCN(c2ncnc3cc(C(=O)NC4CCCC4)ccc23)CC1

IC50 [3]: 7 µM | IC50 [9]: 8 µM
Structure (SMILES): NCc1ccc(NC(=O)c2ccc3c(N4CCC(N)CC4)ncnc3c2)cc1

More lines, now with the values behind:

Structure (SMILES): CNCCCNC(=O)c1ccc2c(Nc3ccc(CN)cc3)ncnc2c1
inhibition [1]: < 25% | inhibition [2]: < 25%

Structure (SMILES): CN(C)CCNC(=O)c1ccc2c(Nc3ccc(CN)cc3)ncnc2c1
IC50 [3]: 22 µM | inhibition [4]: < 25% | inhibition [5]: < 25% | inhibition [6]: 5%

Structure (SMILES): COCCc1ccc(OCC(O)CNC(C)C)cc1 (configuration not stated) [METOPROLOL]
logD at 4 h [10]: -0.28

Structure (SMILES): CNCCNC(=O)c1ccc2c(Nc3ccc(CN)cc3)ncnc2c1
IC50 [3]: 23 µM | inhibition [5]: < 25% | inhibition [6]: 15%

Structure (SMILES): CN(C)CCN1CCC(NC(=O)c2ccc3c(Nc4ccc(CN)cc4)ncnc3c2)C1 (configuration not stated)
IC50 [3]: 16 µM | inhibition [5]: < 25% | inhibition [6]: 10%

Structure (SMILES): CNCCNc1cccc(-n2nc(C(F)(F)F)cc2C(=O)NCc2ccccc2OC)c1
IC50 [13]: 0.005 µM

Structure (SMILES): CCCSc1ccc2nc(NC(=O)OC)[nH]c2c1 [ALBENDAZOLE]
solubility at 24 h [14]: 2.2 µg/mL (≈ 8.29 µM)

Structure (SMILES): NCc1ccc(Nc2ncnc3cc(C(=O)N4CCC(N)C4)ccc23)cc1 (configuration not stated)
IC50 [8]: > 100 µM | IC50 [3]: > 100 µM | IC50 [9]: > 200 µM

Structure (SMILES): NCc1ccc(Nc2ncnc3cc(C(=O)NCCN4CCCC4)ccc23)cc1
IC50 [3]: 14 µM | inhibition [4]: < 25% | inhibition [5]: < 25% | inhibition [6]: 9%

Structure (SMILES): CNCCN1CCC(NC(=O)c2ccc3c(Nc4ccc(CNC)cc4)ncnc3c2)C1 (configuration not stated)
IC50 [8]: 2 µM | inhibition [1]: < 25% | inhibition [2]: < 25%

Structure (SMILES): CNCCNCc1c[nH]nc1-c1ccc(O[C@H]2C[C@H](OCCC3CCCCC3)C2)cc1
IC50 [15]: 0.01 µM | IC50 [16]: 0.223 µM | IC50 [17]: 0.119 µM

Structure (SMILES): NCc1ccc(Nc2ncnc3cc(C(=O)NCCN4CCNCC4)ccc23)cc1
IC50 [3]: 35 µM | IC50 [9]: 74 µM

Structure (SMILES): NCc1ccc(Nc2ncnc3cc(C(=O)NC4CCNC4)ccc23)cc1 (configuration not stated)
IC50 [3]: 47 µM | IC50 [9]: 63 µM

Structure (SMILES): CN1CCN(CCNC(=O)c2ccc3c(Nc4ccc(CN)cc4)ncnc3c2)CC1
inhibition [4]: < 25% | inhibition [18]: < 25% | inhibition [5]: < 25% | inhibition [6]: 17%

Structure (SMILES): CC(C)Oc1ccc(-c2c[nH]cc2CN(C)CCN)cc1
IC50 [19]: 45 µM | IC50 [20]: 9 µM

Reference: ChEMBL document CHEMBL5625232, “Development of selective class I protein arginine methyltransferase inhibitors through fragment-based drug design approach” (Eur J Med Chem, 2023)
